Results as given in patent US10011609B2, “Heterocyclic compounds” (CADILA HEALTHCARE LIMITED, priority 2013, dated 2018).
Read-outs that look alike come from different tables or passages of the source.

Assays:
n-STZ rat model = experiment: Oral glucose tolerance test in n-STZ rat model; type: in vivo, Wistar rat; details: for % improvement in AUC glucose vs. control: n-STZ rat; for ED50: po, n-STZ rat OGTT model
Description: Primary Screening Protocol for GRP40 agonist test compounds in n-STZ rat model
Wistar rat pups of 1-2 day old injected with Streptozotocin (STZ) at 120 mg/kg dose by intraperitoneal route. All pups allowed grow normally and at the age of 12-14 week they were screen for glucose intolerance by performing the oral glucose tolerance test by tail clip method using glucometer. Animals showing glucose intolerance were selected for evaluation of test compound. Three to seven days of rest period animals were kept on overnight fasting. […] Animals were administered with test compound and then 15-60 min after the compound administration “O” min blood glucose levels were measured and immediately glucose load at 2 g/kg was administered orally. Blood glucose levels were measured at 30, 60 and 120 min after glucose load using by tail clip method using glucometer. Blood was also collected at 10 min after glucose load for measurement of insulin levels. Glucose area under the curve (AUC) was calculated using Graph Pad Prism software and % reduction in AUC-glucose vs vehicle treated control was calculated (Table 3).

GPR40 [1] = target: T1, GPR40 (Homo sapiens, UniProt O14842); experiment: Promoter-luciferase assay to measure GPR40 activation (HEK293 cells stably transfected with GPR40 cDNA); type: cell-based; details: HEK293 cells stably transfected with GPR40, 5xSRE-luciferase
T1 construct: host or cells: HEK293 (ChemiBrite cell line)
T1 sequence (O14842 whole entry, species assumed): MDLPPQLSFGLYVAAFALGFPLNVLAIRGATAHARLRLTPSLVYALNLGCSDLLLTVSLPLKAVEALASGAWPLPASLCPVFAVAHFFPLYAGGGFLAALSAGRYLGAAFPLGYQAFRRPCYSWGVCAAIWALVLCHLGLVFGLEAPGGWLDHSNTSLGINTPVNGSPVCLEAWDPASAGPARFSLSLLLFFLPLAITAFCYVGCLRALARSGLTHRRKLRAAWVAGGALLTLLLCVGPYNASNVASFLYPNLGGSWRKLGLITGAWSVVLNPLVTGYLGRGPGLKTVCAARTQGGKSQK
Description: GPR40 activation was measured in HEK293 cells stably transfected with GPR40 cDNA (ChemiBrite cell lines from Millipore, US). These cells were transiently transfected with a pGL2 (Promega Inc.) plasmid having a 5×SRE sequence, cloned 5′ of a luciferase gene along with a β-galactosidase plasmid as normalizing control. Briefly, 35000 cells/well were seeded in a 96 well plates. After overnight incubation at 37° C., the cells were washed with PBS and transfected with the 5×-SRE-Luciferase plasmid and the β-galactosidase plasmid. 6 h post transfection, media was removed and replaced with fresh media with different concentration of drugs and incubated for 16 more hours. The cells were then lysed in 50 μL of Glo-Lysis buffer (Promega) for 30 min at room temperature. The cells were then centrifuged and lysates were collected. Luciferase activity was measured by adding 100 μL of luciferase substrate (Promega) in 20 μL of lysate and measuring the luminescence in luminometer. The […] activity was also measured by adding 20 μL of lysates with 20 μL of β-galactosidase buffer (Promega) and monitoring the absorbance at 415 nm. Luciferase values were divided by β-galactosidase values to normalize transfection efficiency (Table 2)

GPR40 [2] = target: T1, GPR40; experiment: Intracellular Ca2+ flux fluorescent assay (FLIPR); type: cell-based
Description: To determine the EC50 of the compounds on intracellular Ca^2+ flux using a fluorescent assay (FLIPR)
GPR40 expressing stable cells were seeded at 25,000 numbers/well. 50 μL/well of assay buffer (20 mM HEPES+1×HBSS) was added to the cells and the cells were cultured for 20 min at 37° C. Cells were loaded with 50 μL/well of Calcium 5 dye and cultured for 45 min at 37° C.
The cells were challenged with compounds at a top concentration of 1000 nM (1:3 step down dilution—10 points). Intracellular Calcium flux was assessed by use of Screen Works 3.1 tool and statistical analysis was carried using Graph Pad Prism 4

Pharmacokinetics in rats = details: rat, in vivo; for MRT: read-out: Mean residence time; for Vd: read-out: Vss; for bioavailability: po 3 mg/Kg vs iv 1 mg/Kg
[3] = read-out: EC50 in Luciferase assay
[4] = GPR40 expressing stable cells, intracellular Ca2+ flux, read-out: EC50 in FLIPR assay
[5] = iv 1 mg/Kg, read-out: T1/2, iv (converted)
[6] = po 3 mg/Kg, read-out: T1/2, po (converted)

In the case of `CC#C[C@@H](CC(=O)O)c1ccc(OCc2cccc(CN3CCc4nc(C)sc4C3)c2)cc1` [Compound 10, (S)-3-(4-((3-((2-methyl-6,7-dihydrothiazolo[5,4-c]pyridin-5(4H)-yl)methyl)benzyl)oxy)phenyl)hex-4-ynoic acid], the “% improvement in AUC glucose vs. control” value (n-STZ rat model; 0.1 mg/Kg per oral) is reported as 21.1%, the “% improvement in AUC glucose vs. control” value (n-STZ rat model; 1 mg/Kg per oral) is reported as 35.7% and the “% improvement in AUC glucose vs. control” value (n-STZ rat model; 10 mg/Kg per oral) is reported as 45.0%. It also gave an EC50 (GPR40 [1]; [3]) of 16.9 nM.
With `CC#C[C@@H](CC(=O)O)c1ccc(OCc2cccc(CN3CCc4sc(C)cc4C3)c2)cc1` [Compound 7, (S)-3-(4-((3-((2-methyl-6,7-dihydrothieno[3,2-c]pyridin-5(4H)-yl)methyl)benzyl)oxy)phenyl)hex-4-ynoic acid] the “% improvement in AUC glucose vs. control” value (n-STZ rat model; 0.1 mg/Kg per oral) was 30.4%, the “% improvement in AUC glucose vs. control” value (n-STZ rat model; 1 mg/Kg per oral) was 46.0% and the “% improvement in AUC glucose vs. control” value (n-STZ rat model; 10 mg/Kg per oral) was 57.0%. It also gave an EC50 (GPR40 [2]; [4]) of 1.8 nM and an EC50 (GPR40 [1]; [3]) of 1.49 nM.
For `CC#C[C@@H](CC(=O)O)c1ccc(OCc2cccc(CN3CCc4sccc4C3)c2)cc1` [Compound 1, (S)-3-(4-((3-((6,7-dihydrothieno[3,2-c]pyridin-5(4H)yl)methyl)benzyl)oxy)phenyl)hex-4-ynoic acid], the EC50 (GPR40 [2]; [4]) was 117 nM and the EC50 (GPR40 [1]; [3]) was 7.5 nM.
`CC#C[C@@H](CC(=O)O)c1ccc(OCc2cccc(CN3Cc4cnn(C)c4C3)c2)cc1` [Compound 22, (S)-3-(4-((3-((1-Methylpyrrolo[3,4-c]pyrazol-5(1H,4H,6H)-yl)methyl)benzyl)oxy)phenyl)hex-4-ynoic acid] gave an EC50 (GPR40 [2]; [4]) of 36.3 nM and an EC50 (GPR40 [1]; [3]) of 31.5 nM.
With `CC#C[C@@H](CC(=O)O)c1ccc(OCc2cccc(CN3CCc4sc(Br)cc4C3)c2)cc1` [Compound 19, Calcium (S)-3-(4-((3-((2-bromo-6,7-dihydrothieno[3,2-c]pyridin-5(4H)-yl)methyl)benzyl)oxy)phenyl)hex-4-ynoate] the EC50 (GPR40 [2]; [4]) was 2.32 nM.
In the case of `CC#C[C@@H](CC(=O)[O][Ca][O]C(=O)C[C@H](C#CC)c1ccc(OCc2cccc(CN3CCc4oc(C5CC5)nc4C3)c2)cc1)c1ccc(OCc2cccc(CN3CCc4oc(C5CC5)nc4C3)c2)cc1` [Compound 64, Calcium (S)-3-(4-((3-((2-cyclopropyl-6,7-dihydrooxazolo[4,5-c]pyridin-5(4H)-yl)methyl)benzyl)oxy)phenyl)hex-4-ynoate], the “% improvement in AUC glucose vs. control” value (n-STZ rat model; 1 mg/Kg per oral) is reported as 46%, the “% improvement in AUC glucose vs. control” value (n-STZ rat model; 10 mg/Kg per oral) is reported as 47% and the ED50 (n-STZ rat model) is reported as 0.09 mg/kg. The EC50 (GPR40 [1]; EC50 in Luciferase assay) was 1.2 nM, the AUC(0-t) (Pharmacokinetics in rats; iv 1 mg/Kg) was 56100 ± 4350 ng·h/mL and the C0 (Pharmacokinetics in rats; iv 1 mg/Kg) was 10200 ± 1540 ng/mL. The clearance (Pharmacokinetics in rats; iv 1 mg/Kg) was 0.27 ± 0.03 mL/min/kg, the MRT (Pharmacokinetics in rats; iv 1 mg/Kg) was 10.1 ± 1.36 h and the half-life (Pharmacokinetics in rats; [5]) was 7.77 ± 1.07 h. It also gave a Vd (Pharmacokinetics in rats; iv 1 mg/Kg) of 0.16 ± 0.01 L/kg, a Cmax (Pharmacokinetics in rats; po 3 mg/Kg) of 8060 ± 2190 ng/mL and a Tmax (Pharmacokinetics in rats; po 3 mg/Kg) of 2 h. For the same compound, the bioavailability (Pharmacokinetics in rats) was 45%, the MRT (Pharmacokinetics in rats; po 3 mg/Kg) was 6.59 ± 0.93 h and the half-life (Pharmacokinetics in rats; [6]) was 4.51 ± 0.61 h.
For `CC#C[C@@H](CC(=O)[O][Ca][O]C(=O)C[C@H](C#CC)c1ccc(OCc2cccc(CN3CCc4nc(Cl)sc4C3)c2)cc1)c1ccc(OCc2cccc(CN3CCc4nc(Cl)sc4C3)c2)cc1` [Compound 60, Calcium (S)-3-(4-((3-((2-chloro-6,7-dihydrothiazolo[5,4-c]pyridin-5(4H)-yl)methyl)benzyl)oxy)phenyl)hex-4-ynoate], the “% improvement in AUC glucose vs. control” value (n-STZ rat model; 1 mg/Kg per oral) was 44%, the “% improvement in AUC glucose vs. control” value (n-STZ rat model; 10 mg/Kg per oral) was 47% and the ED50 (n-STZ rat model) was 0.04 mg/kg. For the same compound, the EC50 (GPR40 [1]; EC50 in Luciferase assay) was 5.6 nM, the AUC(0-t) (Pharmacokinetics in rats; iv 1 mg/Kg) was 18600 ± 2170 ng·h/mL and the C0 (Pharmacokinetics in rats; iv 1 mg/Kg) was 3390 ± 330 ng/mL. The clearance (Pharmacokinetics in rats; iv 1 mg/Kg) was 0.89 ± 0.1 mL/min/kg, the MRT (Pharmacokinetics in rats; iv 1 mg/Kg) was 6.28 ± 0.77 h and the half-life (Pharmacokinetics in rats; [5]) was 5.57 ± 1.46 h. The Vd (Pharmacokinetics in rats; iv 1 mg/Kg) was 0.33 ± 0.01 L/kg, the Cmax (Pharmacokinetics in rats; po 3 mg/Kg) was 7770 ± 1940 ng/mL and the Tmax (Pharmacokinetics in rats; po 3 mg/Kg) was 1 h. For the same compound, the bioavailability (Pharmacokinetics in rats) was 93%, the MRT (Pharmacokinetics in rats; po 3 mg/Kg) was 5.74 ± 0.1 h and the half-life (Pharmacokinetics in rats; [6]) was 5.45 ± 0.79 h.
For `CC#C[C@@H](CC(=O)[O][Ca][O]C(=O)C[C@H](C#CC)c1ccc(OCc2cccc(CN3CCc4sc(C)cc4C3)c2)cc1)c1ccc(OCc2cccc(CN3CCc4sc(C)cc4C3)c2)cc1` [Compound 16, calcium(S)-3-(4-((3-((2-methyl-6,7-dihydrothieno[3,2-c]pyridin-5(4H)-yl)methyl)benzyl)oxy)phenyl)hex-4-ynoate(S)-3-(4-((3-((2-methyl-6,7-dihydrothieno[3,2-c]pyridin-5(4H)-yl)methyl)benzyl)oxy)phenyl)hex-4-ynoate], the “% improvement in AUC glucose vs. control” value (n-STZ rat model; 1 mg/Kg per oral) was 44.6%, the “% improvement in AUC glucose vs. control” value (n-STZ rat model; 10 mg/Kg per oral) was 59.6% and the ED50 (n-STZ rat model) was 0.05 mg/kg. For the same compound, the EC50 (GPR40 [2]) was 2.72 nM, the EC50 (GPR40 [1]; EC50 in Luciferase assay) was 4.6 nM and the AUC(0-t) (Pharmacokinetics in rats; iv 1 mg/Kg) was 3180 ± 400 ng·h/mL. The C0 (Pharmacokinetics in rats; iv 1 mg/Kg) was 5020 ± 370 ng/mL, the clearance (Pharmacokinetics in rats; iv 1 mg/Kg) was 5.26 ± 0.65 mL/min/kg and the MRT (Pharmacokinetics in rats; iv 1 mg/Kg) was 1.09 ± 0.07 h. It also gave a half-life (Pharmacokinetics in rats; [5]) of 1.45 ± 0.12 h, a Vd (Pharmacokinetics in rats; iv 1 mg/Kg) of 0.34 ± 0.03 L/kg and a Cmax (Pharmacokinetics in rats; po 3 mg/Kg) of 5920 ± 2100 ng/mL. It also gave a Tmax (Pharmacokinetics in rats; po 3 mg/Kg) of 0.25 h, a bioavailability (Pharmacokinetics in rats) of 83% and an MRT (Pharmacokinetics in rats; po 3 mg/Kg) of 2.19 ± 0.31 h. The half-life (Pharmacokinetics in rats; [6]) was 1.77 ± 0.42 h.
For `CC#C[C@@H](CC(=O)O)c1ccc(OCc2cccc(CN3CCc4sc(C(=O)N5CCCC5)cc4C3)c2)cc1` [Compound 62, (S)-3-(4-((3-((2-(pyrrolidine-1-carbonyl)-6,7-dihydrothieno[3,2-c]pyridin-5(4H)-yl)methyl)benzyl)oxy)phenyl)hex-4-ynoic acid], the EC50 (GPR40 [1]; [3]) was 3 nM.
`CC#CC(CC(=O)O)c1ccc(OCc2cccc(CN3CCc4sc(C)cc4C3)c2)cc1` (stereo not shown) [Compound 58, 3-(4-((3-((2-Methyl-6,7-dihydrothieno[3,2-c]pyridin-5(4H)-yl)methyl)benzyl)oxy)phenyl)hex-4-ynoic acid] showed an EC50 (GPR40 [1]; [3]) of 3.7 nM.
Compound `CC#C[C@@H](CC(=O)O)c1ccc(OCc2cccc(CN3CCCC3c3ccccc3)c2)cc1` (stereo partly drawn) [Compound 51, (3S)-3-(4-((3-((2-phenylpyrrolidin-1-yl)methyl)benzyl)oxy)phenyl)hex-4-ynoic acid] has an EC50 (GPR40 [1]; [3]) of 3 nM.
For `CC#C[C@@H](CC(=O)[O][Ca][O]C(=O)C[C@H](C#CC)c1ccc(OCc2cccc(CN3CCc4nc(C)sc4C3)c2)cc1)c1ccc(OCc2cccc(CN3CCc4nc(C)sc4C3)c2)cc1` [Compound 17, calcium (S)-3-(4-((3-((2-methyl-6,7-dihydrothiazolo[4,5-c]pyridin-5(4H)-yl)methyl)benzyl)oxy)phenyl)hex-4-ynoate(S)-3-(4-((3-((2-methyl-6,7-dihydrothiazolo[4,5-c]pyridin-5(4H)-yl)methyl)benzyl)oxy)phenyl)hex-4-ynoate], the “% improvement in AUC glucose vs. control” value (n-STZ rat model; 1 mg/Kg per oral) was 37.1%, the “% improvement in AUC glucose vs. control” value (n-STZ rat model; 10 mg/Kg per oral) was 44.7% and the EC50 (GPR40 [2]) was 10.2 nM. The EC50 (GPR40 [1]; EC50 in Luciferase assay) was 4.7 nM.
